# From patent publication US20240043527A1 (BioNTech SE, priority 2020, published 2024)
# What was measured:
# PDAC = conditions: metastasized stage; Conroy et al. 2011; cited from earlier work
# [1] = target: first extracellular domain (ECD1) of CLDN-18.2 (Homo sapiens, UniProt P56856); conditions: cited from earlier work
# [2] = system: gastric and gastro-esophageal cancer; conditions: cited from earlier work
# [3] = system: CLDN-18.2+ NUG-C4 transfectants; assay: Ex vivo ADCC assay with serum of dosed non-human primates; assay type: cell-based; conditions: serum of monkey No. 14 (1.6 mg/kg) 48 hours after 3rd dosing or recombinant reference protein; 48 hours incubation
# Description: (§1) Non-Human Primates (NHP) received three repetitive doses of 0.1, 0.4 or 1.6 mg/kg RB_RMAB01 once weekly. RiboMab01-containing serum of all monkeys sampled 24 hours (black bars) and 168 hours (white bars) post 1st injection was directed to luciferase-based ex vivo ADCC assays. […] Human PBMCs from two different healthy donors (24 h, donor 1, 168 h, donor 2) served as effector cells. (Panel A) RiboMab01-mediated ADCC of NUG-C4 cells after 48 hours incubation is shown. (Panel B) Unspecific lysis on target-negative MDA-MB-231 cells is shown. Error bars are standard error of the mean (n=3). (Panel C) Serum of NHP No. 14 (1.6 mg/kg RB_RMAB01, RiboMab01 serum concentration 232 μg/mL) collected 48 hours after the 3rd dosing was used for a luciferase-based ex vivo ADCC assays. […] Human PBMCs of a healthy donor served as effector cells. […] Incubation time was 48 hours. Error bars are standard errors of the mean (n=3).
# (§2) ADCC assays were performed as described in Example 2. […] Purified IMAB362 served as assay reference protein.
# [4] = cited from earlier work
# [5] = cited from earlier work; remark: listed apart in the source
# MDA-MB-231 cells = assay: Ex vivo ADCC assay with serum of dosed non-human primates, target-negative control cells; assay type: cell-based; conditions: FIG. 5 Panel C dilution row
# Description: as §1, §2
# CLDN-18.2+ cells = conditions: in serum; Sahin et al. 2018; cited from earlier work
# [6] = target: CLDN-18.2+ NUG-C4 transfectants; assay: In vitro ADCC assay (luciferase-based); assay type: cell-based, human; conditions: human PBMCs from three donors, E:T 30:1, 48 hours
# Description: RiboMab01-containing cell culture supernatant from CHO-K1 cells lipofected with RB_RMAB01 was subjected to (Panel A) ADCC and (Panel B) CDC assays. […] Human PBMCs of three different healthy donors were utilized as effector cells (E:T ratio 30:1). Target or control and effector cells were incubated for 48 hours with the indicated RiboMab01 and IMAB362 reference protein concentrations. Specific cell lysis as determined in a luciferase-based assay is shown. […] Target and control cells were incubated with human serum and RiboMab01 concentrations as indicated for 2 hours. CDC determined in a luciferase-based assay is shown. Error bars are standard errors of the mean (n=3).
# Mode of action analysis: Antibody-dependent cellular cytotoxicity (ADCC) and complement-dependent cytotoxicity (CDC) in vitro. […] To simulate in vivo conditions, human PBMCs from three different healthy donors were used as effector cells in ADCC assays in an effector to target (E:T) ratio of 30:1 and human serum (e.g., commercially available human serum) was used as a source of complement in CDC assays.
# [7] = Apparent pKa of the amino lipid; assay type: physicochemical
# [8] = system: pancreatic cancer cell lines; conditions: cited from earlier work; for de novo CLDN-18.2 expression: CLDN-18.2-negative cell lines; for CLDN-18.2 expression levels: pancreatic cancer cell lines with existing expression
# advanced BTC = conditions: first-line treatment of advanced disease; cited from earlier work
# [9] = system: locally advanced, unresectable or metastatic pancreatic cancer; conditions: erlotinib versus placebo; cited from earlier work
# [10] = ≥70% CLDN-18.2 expression subset, vs EOX, p<0.0005
compound,measurement,setting,value
FOLFIRINOX,median survival compared to gemcitabine alone,PDAC,nearly double median survival
IMAB362: full IgG1 monoclonal antibody targeting CLDN-18.2; used as recombinant reference protein,binding to other claudin family members including CLDN18.1,[1],does not bind
same,recognition of ECD1 of CLDN-18.2,[1],high affinity and specificity
same,change of median overall survival,[2]; patients with ≥70% of tumor cells with ≥2+ CLDN-18.2 staining,near-doubling
same,benefit in overall survival (OS),[2]; [10],33.1 weeks
same,delay in central independent reviewed progression,[2]; [10],14.5 weeks
same,EC50,[3],0.151 nM
same,cmax,[4]; repeated doses up to 1000 mg/m^2 q3w,up to 603 μg/mL
same,tolerability across various trials,[4]; single agent and in combination with chemotherapy,well tolerated
same,patients with grade 3 vomiting,"[5]; 12 patients, 600 mg/m^2 dose",22%
same,patients with fatigue,[5]; TEAE,22%
same,patients with nausea,[5]; TEAE,61%
same,patients with vomiting,[5]; TEAE,50%
same,patients with grade 3 nausea,"[5]; eight patients, 600 mg/m^2 dose",15%
same,patients with treatment emergent adverse events (TEAEs),[5]; n=44/54,82%
same,unspecific lysis on control cells,MDA-MB-231 cells,weak unspecific lysis
same,ADCC EC95 (concentration that gives 95% response),CLDN-18.2+ cells,0.3 to 28 µg/mL
same,ADCC EC50,[6],0.014 to 0.265 µg/mL
"CCCCCCC(CCCC)C(=O)OCCCCCCCCCN(CCCO)CCCCCCCCCOC(=O)C(CCCC)CCCCCC (stereo not shown) [Cationic Lipid A, ((3-Hydroxypropyl)azanediyl)bis(nonane-9,1-diyl)bis(2-butyloctanoate)]",pKa,[7],~6.25
Nc1ccn([C@@H]2O[C@H](CO)[C@@H](O)C2(F)F)c(=O)n1 [gemcitabine],de novo CLDN-18.2 expression,[8],not observed to increase de novo expression
same,CLDN-18.2 expression levels,[8],upregulate existing CLDN-18.2 expression levels
same,median OS,advanced BTC,8.1 months
O=c1[nH]cc(F)c(=O)[nH]1 [5-fluorouracil],de novo CLDN-18.2 expression,[8],not observed to increase de novo expression
same,CLDN-18.2 expression levels,[8],upregulate existing CLDN-18.2 expression levels
O=C1[O][Pt]2([NH][C@@H]3CCCC[C@H]3[NH]2)[O]C1=O [oxaliplatin],de novo CLDN-18.2 expression,[8],not observed to increase de novo expression
same,CLDN-18.2 expression levels,[8],upregulate existing CLDN-18.2 expression levels
C#Cc1cccc(Nc2ncnc3cc(OCCOC)c(OCCOC)cc23)c1 [erlotinib],median overall survival (OS) benefit,[9],0.4 month
same,median progression-free survival (PFS) benefit,[9],0.3 month
